The source of these data is patent US20160075653A1, “NEMATICIDAL N-(PHENYLCYCLOALKYL)CARBOXAMIDES AND N-(PHENYLCYCLOALKYL)THIOCARBOXAMIDES” (BAYER CROPSCIENCE AKTIENGESELLSCHAFT, priority 2013, published 2016).

Like-named read-outs stand apart in the source and are kept apart here.

Data set [1] deals with Boophilus microplus. Nature of the data set: Boophilus microplus injection test (BOOPMI Inj). Type of data set: in vivo. To be noted: application rate 20 μg/animal, injection into abdomen of adult engorged female ticks, after 7 days. As for the experimental part:
Boonhilus micronlus—Injectiontest (BOOPMI Inj)
Solvent: dimethyl sulfoxide
To produce a suitable preparation of active compound, 10 mg of active compound are dissolved in 0.5 ml solvent, and the concentrate is diluted with solvent to the desired concentration.
Five adult engorged female ticks (Boophilus microplus) are injected with 1 μl compound solution into the abdomen. Ticks are transferred into replica plates and incubated in a climate chamber.
After 7 days the egg deposition of fertile eggs is monitored. Eggs where fertility is not visible are stored in a climate chamber till hatching after about 42 days. An efficacy of 100% means that all eggs are infertile; 0% means that all eggs are fertile.

Data set [2] in a line: Measurement of log P values by HPLC on reversed phase columns (methods [a] pH 2.3, [b] pH 2.7, [c] pH 7.8). To be noted: for chromatographic logP: reversed phase HPLC columns, read-out: logP. In kind it is physicochemical. The method in brief:
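Retention times were converted to log P by linear interpolation between linear alkan-2-one standards (3 to 16 carbons) of known log P. Eluents, each with 10% to 95% acetonitrile gradient: phosphoric acid 0.1% at pH 2.3 [a]; formic acid 0.1% at pH 2.7, LC-MS [b]; ammonium hydrogen carbonate 0.001 molar at pH 7.8, LC-MS [c].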

Data set [3] relates to Cooperia curticei. Nature of the data set: Cooperia curticei test (COOPCU), larval mortality. Type of data set: in vivo. The note with it: for mortality at 20 ppm: Cooperia curticei, 120 h, read-out: activity (larval mortality). As for the experimental part: Cooneria curtice—Test (COOPCU) Solvent: dimethyl sulfoxide
(§1) To produce a suitable preparation of active compound, 10 mg of active compound are dissolved in 0.5 ml solvent, and the concentrate is diluted with “Ringer's solution” to the desired concentration.
Approximately 40 nematode larvae (Cooperia curticei) are transferred into a test tube containing the compound solution.
After 5 days percentage of larval mortality is recorded. 100% efficacy means all larvae are killed; 0% efficacy means no larvae are killed.

The subject of data set [4] is Haemonchus contortus. Kind of data set: Haemonchus contortus test (HAEMCO), larval mortality. To be noted: 120 h, read-out: activity (larval mortality). In kind it is in vivo. As for the experimental part:
Haemonchus contortus—Test (HAEMCO) Solvent: dimethyl sulfoxide
as §1
Approximately 40 larvae of the red stomach worm (Haemonchus contortus) are transferred into a test tube containing compound solution.
After 5 days percentage of larval mortality are recorded. 100% efficacy means all larvae are killed, 0% efficacy means no larvae are killed.

Data set [5] concerns Meloidogyne incognita. Kind of data set: Meloidogyne incognita test (MELGIN), gall formation on salad seedlings. In kind it is in vivo. The note with it: application rate 20 ppm, after 14 days. A digest of the protocol: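 Sand vessels treated with acetone-formulated compound diluted in water, then inoculated with M. incognita eggs and larvae and sown with salad seeds. Root galling assessed after 14 days: 100% = no galls, 0% = galling equal to untreated plants.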

[6] abbreviates: pH 2.7, HPLC reversed phase, method [b] (pH 2.7).

As to `Cc1nn(C)c(F)c1C(=O)N[C@@H]1C[C@H]1c1ccccc1Cl` (relative stereo) [Compound 49], the “activity (efficacy: infertile eggs)” value in data set [1] is reported as 80%. Further, the logP in data set [2] (HPLC on reversed phase columns, method [b], pH 2.7) was 2.40^[b].
In the case of `O=C(NC1CCC1c1ccc(Cl)cc1Cl)c1ccccc1` (stereo not shown) [Compound 451], the “activity (larval mortality)” value in data set [3] (application rate 4 ppm, after 5 days) worked out at 90%. In data set [2] (HPLC reversed phase, method [b] (pH 2.7)), the logP was 3.30^[b].
Regarding `O=C(N[C@@H]1CC[C@@H]1c1ccc(Cl)cc1Cl)c1ccccc1I` [Compound 456], the mortality at 20 ppm in data set [3] and in data set [4] was 100% throughout. For the same compound, the chromatographic logP in data set [2] (setting [6]) amounted to 3.75. The “nematicidal activity (percentage of gall formation; 100% = no galls)” value in data set [5] stood at 100%.
In the case of `O=C(N[C@@H]1CC[C@@H]1c1c(F)cccc1F)c1ccccc1C(F)(F)F` [Compound 513], the mortality at 20 ppm in data set [3] worked out at 80%; in data set [4] it was 90%. In addition, the chromatographic logP in data set [2] (setting [6]) amounted to 3.15. In addition, the “nematicidal activity (percentage of gall formation; 100% = no galls)” value in data set [5] worked out at 100%.
Consider `O=C(N[C@@H]1CC[C@@H]1c1ccccc1C(F)(F)F)c1cccnc1Cl` [Compound 621], for which the results for the mortality at 20 ppm in data set [3] and in data set [4] were 100% and 90%, respectively. For the same compound, the chromatographic logP in data set [2] (pH 2.7, HPLC on reversed phase column, method [b], pH 2.7) stood at 2.64. Moreover, the “nematicidal activity (percentage of gall formation; 100% = no galls)” value in data set [5] was determined as 100%.
